Assay results as given in patent US7285555B2, “6-aryl-7-halo-imidazo[1,2-a]pyrimidines as anticancer agents” (Wyeth Holdings Corporation, priority 2003, dated 2007).

Tests used:
HL-60/ADR cells = assay: MTS cytotoxicity test procedure with HL-60/ADR cells; assay type: cell-based, human; conditions: Homo sapiens, HL60/ADR; MTS assay, HL-60/ADR cells, means of 2 independent experiments
From the text: (§1) Human cancer cell lines, unless otherwise noted, are obtained from the American Type Culture Collection (Rockville, Md.). The following drug-sensitive parental cell lines, and their derived drug-resistant counterparts, are obtained from the originators as listed: (a) S1 (parental line from a subclone of human colon carcinoma line LS174T) and derived S1-M1-3.2 (herein called S1-M1) which expresses the MXR drug transporter protein, are provided by Dr. L. Greenberger, Wyeth Research (Rabindran, S. K., He, H., Singh, M., Brown, E., Collins, K. I., Annable, T., and Greenberger, L. M. Reversal of a novel multidrug resistance mechanism in human colon carcinoma cells by fumitremorgin C. Cancer Res., 58: 5850-5858,1998); (b) parental HL-60 human promyelocytic leukemia line and derived HL-60/ADR, which expresses the MRP1 drug transporter protein, are provided by Dr. M. Center, University of Kansas (McGrath, T., and Center, M. S. Adriamycin resistance in HL60 cells in the absence of detectable P-glycoprotein. Biochem. Biophys. […] J. Biol. Chem., 261: 7762-7770, 1986) via Dr. L. Greenberger, Wyeth Research.
(§2) The MTS assay, which is sold in kit form by Promega (Madison, Wis.; CellTiter 96 AQueous Non-Radioactive Cell Proliferation Assay), is based on the conversion by viable cells, but not by dead cells, of the tetrazolium salt, MTS (3-(4,5-dimethylthiazol-2-yl)-5-(3-carboxymethoxyphenyl)-2-(4-sulphophenyl)-2H-tetrazolium, inner salt), into a water-soluble colored formazan which is detected by spectrophotometry. Compounds are tested at nine concentrations, in order to determine IC50 values. For the test procedure, cells are harvested by trypsinization (or, in the case of non-adherent cells, by simple resuspension), washed, counted and distributed to wells of 96-well flat-bottom microtiter plates at 1000 cells per well in 200 μL of medium. In addition, one row of wells on a separate plate receives cells as above (“time 0” plate). All plates are incubated at 370 in humidified 5% CO2 in air for about 24 hr.
(§3) On day 2, compounds for test are diluted and added to wells. Compounds are dissolved in DMSO at 10 mg/mL. For each compound, nine serial 2-fold dilutions are prepared in DMSO. Ten μL of each dilution in DMSO is transferred to 100 μL of medium, mixed well, and then 5 μL of this dilution is transferred in quadruplicate to wells containing cells. […] Plates are returned to the incubator for three days. At the time of drug addition to the experimental plates, the MTS assay is run on the “time 0” plate.
After three days of culture with test compounds (day 5 overall), the MTS assay is done on all wells of the experimental plates. The absorbance values of the quadruplicate sample wells are averaged and divided by the average of the “time 0” values. […] The nine values for each compound are plotted against concentration, and the concentration that produces a relative color yield half way between the maximum and minimum is taken as the IC50 value.
HL-60/ADR cells overexpress the multidrug resistance protein MRP1 which mediates resistance to some chemotherapeutics (Gottesman, M. M., Fojo, T., and Bates, S. E. Multidrug resistance in cancer: role of ATP-dependent transporters. Nature Rev. Cancer, 2: 48-58, 2002). The IC50 values of example 6 of this invention, as well as reference compounds, on HL-60/ADR are compared to values on the sensitive parental HL-60 line.

S1-M1 cells = assay: MTS cytotoxicity test procedure with S1-M1 cells; assay type: cell-based, human; conditions: Homo sapiens; MTS assay, S1-M1 cells, means of 2 independent experiments
From the text: as §1, §2, §3
(§4) After three days of culture with test compounds (day 5 overall), the MTS assay is done on all wells of the experimental plates. The absorbance values of the quadruplicate sample wells are averaged and divided by the average of the “time 0” values. […]

COLO 205 cells = assay: MTS cytotoxicity test procedure with COLO 205 cells; assay type: cell-based; conditions: Homo sapiens, 72 h, MTS assay, three days of culture
Procedure: as §2
On day 2, compounds for test are diluted and added to wells. Compounds are dissolved in DMSO at 10 mg/mL. For each compound, nine serial 2-fold dilutions are prepared in DMSO. Ten μL of each dilution in DMSO is transferred to 100 μL of medium, mixed well, and then 5 μL of this dilution is transferred in quadruplicate to wells containing cells. The final high concentration of each compound is typically 1-5 μM. Plates are returned to the incubator for three days. At the time of drug addition to the experimental plates, the MTS assay is run on the “time 0” plate. This gives the “time 0 MTS value” which is related to the number of viable cells per well at the time of drug addition.
After three days of culture with test compounds (day 5 overall), the MTS assay is done on all wells of the experimental plates. The absorbance values of the quadruplicate sample wells are averaged and divided by the average of the “time 0” values. The average of control wells without drug, divided by the average “time 0” value, gives the maximal relative increase in MTS color yield due to cell growth during the final three days of culture. The average of control wells with high drug concentration, divided by the “time 0” value, gives the minimal relative color yield for cells that were completely killed. The nine values for each compound are plotted against concentration, and the concentration that produces a relative color yield half way between the maximum and minimum is taken as the IC50 value.
COLO 205 is a human colon carcinoma cell line that is used for comparative testing of the examples of this invention and several reference compounds (Table 1). This line is sensitive to paclitaxel and vincristine.

KB-V1 cells = assay: MTS cytotoxicity test procedure with KB-V1 cells; assay type: cell-based, human; conditions: Homo sapiens, KB-V1; MTS assay, KB VI cells, means of 2 independent experiments
From the text: as §1
The MTS assay, which is sold in kit form by Promega (Madison, Wis.; CellTiter 96 AQueous Non-Radioactive Cell Proliferation Assay), is based on the conversion by viable cells, but not by dead cells, of the tetrazolium salt, MTS (3-(4,5-dimethylthiazol-2-yl)-5-(3-carboxymethoxyphenyl)-2-(4-sulphophenyl)-2H-tetrazolium, inner salt), into a water-soluble colored formazan which is detected by spectrophotometry. Compounds are tested at nine concentrations, in order to determine IC50 values. For the test procedure, cells are harvested by trypsinization (or, in the case of non-adherent cells, by simple resuspension), washed, counted and distributed to wells of 96-well flat-bottom microtiter plates at 1000 cells per well in 200 μL of medium. […]
as §4

MAP-rich tubulin = assay: Tubulin polymerization test procedure with MAP-rich tubulin; assay type: biochemical, bovine; conditions: MAP-rich tubulin with 1 mM GTP, compound 0.3 μM, at 20 min
Procedure: (§5) Medium is RPMI-1640 with L-glutamine, supplemented with 10% heat-inactivated fetal calf serum, 100 units/mL penicillin, and 100 μg/mL streptomycin (Gibco, Grand Island, N.Y.). Microtubule-associated protein (MAP)-rich tubulin, containing about 70% tubulin and 30% MAPs (#ML113), and highly purified tubulin (>99% pure, #TL238), both from bovine brain, are obtained from Cytoskeleton, Inc., Denver, Colo. PEM buffer (80 mM piperazine-N,N′-bis[2-ethanesulfonic acid], pH 6.9, 1 mM ethylene glycol-bis(β-aminoethyl ether)-N,N,N′,N′-tetraacetic acid, 1 mM magnesium chloride) and guanosine 5′-triphosphate (GTP) are also obtained from Cytoskeleton. [^3H]paclitaxel, specific activity 14.7 Ci/mmol, is purchased from Moravek Biochemicals (Brea, Calif.). [^3H]vinblastine, specific activity 9.60 Ci/mmol and MicroSpin G-50 columns are obtained from Amersham Biosciences (Piscataway, N.J.). […] Other reagents are obtained from Sigma (St. Louis, Mo.).
MAP-rich tubulin is dissolved in ice-cold PEM buffer containing 1 mM GTP (GPEM buffer) at a concentration of 1.3 mg/mL. The solution is centrifuged at top speed in an Eppendorf model 5415C microcentrifuge (Brinkmann Instruments, Westbury, N.Y.) for 10 min at 40 immediately before use. The tubulin solution is added to wells of a ½-area 96-well plate (Costar No. 3696, Corning, Inc., Corning, N.Y.) already containing the compounds of interest. Each compound is tested in duplicate at a final concentration of 0.3 μM in a volume of 110 μL per well. The final DMSO concentration in all wells is 0.3%. Control reactions, which receive compound solvent only, are done in quadruplicate. The plate is put in a SpectraMax Plus plate reader (Molecular Devices Corp. Sunnyvale, Calif.) thermostated at 240 and the absorbance of each well at 340 nm, a measure of the appearance of turbidity due to tubulin polymer formation, is determined every minute for 60 minutes. The absorbance at time 0 for each well is subtracted from each of the subsequent absorbance readings for that well, and then the duplicates are averaged.
In this assay, control reactions with MAP-rich tubulin show an S-shaped absorbance profile characterized by three phases: first, a lag phase during which no change in absorbance occurs; second, a polymerization phase in which absorbance increases; and third, a plateau phase in which absorbance has reached a maximum and little or no further change occurs. Polymerization enhancers such as paclitaxel and docetaxel shorten or eliminate the lag phase, increase the rate of the polymerization phase, and often increase the height of the plateau. […] This has been expressed quantitatively in Table 6 by dividing the mean A340 of each sample at 20 min by the mean A340 of the control at 20 min to give a fold enhancement over control. […]

pure tubulin = assay: Tubulin polymerization test procedure with pure tubulin; assay type: biochemical, bovine; conditions: pure tubulin without added GTP
Procedure: as §5
The procedure with pure tubulin is similar except for the following changes. […] The supernatant after centrifugation is dispensed to a ½-area 96-well plate already containing compounds. Each compound is tested in duplicate at a final concentration of 24.3 μM. The plate reader μs thermostated at 35°.

Question: For COc1cccc2c1C(=O)c1c(O)c3c(c(O)c1C2=O)C[C@@](O)(C(=O)CO)C[C@@H]3O[C@H]1C[C@H](N)[C@H](O)[C@H](C)O1 [Doxorubicin, reference compound], which IC50 (HL-60/ADR cells) is on record?
Answer: The IC50 was 2080 nM.

Question: And the IC50 (S1-M1 cells)?
Answer: The IC50 was 2520 nM.

Question: With Fc1cc(F)c(-c2c(Cl)nc3nccn3c2N2CCCCC2)c(F)c1 [Example 2, 7-Chloro-5-piperidin-1-yl-6-(2,4,6-trifluorophenyl)imidazo[1,2-a]pyrimidine] as the compound, how does the IC50 (COLO 205 cells) read?
Answer: The IC50 was 396 nM.

Question: For Fc1cc(F)c(-c2c(Cl)nc3nccn3c2N2CCCCCC2)c(F)c1 [Example 1, 5-azepan-1-yl-7-chloro-6-(2,4,6-trifluorophenyl)imidazo[1,2-a]pyrimidine], which IC50 (COLO 205 cells) is on record?
Answer: The IC50 was 259 nM.

Question: What about the melting point of the same compound?
Answer: Its melting point is 106 to 108 °C.

Question: For Fc1cc(F)c(-c2c(Cl)nc3nccn3c2NCC(F)(F)F)c(F)c1 [Example 3, 7-chloro-N-(2,2,2-trifluoroethyl)-6-(2,4,6-trifluorophenyl)imidazo[1,2-a]pyrimidin-5-amine], which IC50 (COLO 205 cells) is on record?
Answer: Its IC50 is 742 nM.

Question: And the melting point?
Answer: Its melting point is 155 to 157 °C.

Question: With Fc1cc(F)c(-c2c(Cl)nc3nccn3c2C2CCCCCC2)c(F)c1 [Example 5, 7-Chloro-5-cycloheptyl-6-(2,4,6-trifluorophenyl)imidazo[1,2-a]pyrimidine] as the compound, how does the IC50 (COLO 205 cells) read?
Answer: Its IC50 is 207 nM.

Question: What does the source list for O=C1c2c(O)ccc(O)c2C(=O)c2c(NCCNCCO)ccc(NCCNCCO)c21 [Mitoxantrone, reference compound]?
Answer: IC50 (KB-V1 cells): 1930 nM; IC50 (HL-60/ADR cells): 161 nM

Question: Which results are given for CC(=O)O[C@@]12CO[C@@H]1C[C@H](O)[C@@]1(C)C(=O)[C@H](O)C3=C(C)[C@@H](OC(=O)[C@H](O)[C@@H](NC(=O)OC(C)(C)C)c4ccccc4)C[C@@](O)([C@@H](OC(=O)c4ccccc4)[C@H]21)C3(C)C [Docetaxel, reference compound]?
Answer: A340 Compound / A340 Control (fold enhancement over control) (MAP-rich tubulin): 5.4; polymerization of pure tubulin without GTP (in words) (pure tubulin): able to induce polymerization
